# Test results from patent US11208400B2, “Substituted 6-(1H-pyrazol-1-yl)pyrimidin-4-amine derivatives and uses thereof” (Bayer Aktiengesellschaft, priority 2016, dated 2021).
# pIC50: −log10 of the molar value.
# Target: T1, human Npt2a (Homo sapiens, UniProt Q06495)
# T1 construct: expressed in transfected cells
# T1 sequence (Q06495 1-639): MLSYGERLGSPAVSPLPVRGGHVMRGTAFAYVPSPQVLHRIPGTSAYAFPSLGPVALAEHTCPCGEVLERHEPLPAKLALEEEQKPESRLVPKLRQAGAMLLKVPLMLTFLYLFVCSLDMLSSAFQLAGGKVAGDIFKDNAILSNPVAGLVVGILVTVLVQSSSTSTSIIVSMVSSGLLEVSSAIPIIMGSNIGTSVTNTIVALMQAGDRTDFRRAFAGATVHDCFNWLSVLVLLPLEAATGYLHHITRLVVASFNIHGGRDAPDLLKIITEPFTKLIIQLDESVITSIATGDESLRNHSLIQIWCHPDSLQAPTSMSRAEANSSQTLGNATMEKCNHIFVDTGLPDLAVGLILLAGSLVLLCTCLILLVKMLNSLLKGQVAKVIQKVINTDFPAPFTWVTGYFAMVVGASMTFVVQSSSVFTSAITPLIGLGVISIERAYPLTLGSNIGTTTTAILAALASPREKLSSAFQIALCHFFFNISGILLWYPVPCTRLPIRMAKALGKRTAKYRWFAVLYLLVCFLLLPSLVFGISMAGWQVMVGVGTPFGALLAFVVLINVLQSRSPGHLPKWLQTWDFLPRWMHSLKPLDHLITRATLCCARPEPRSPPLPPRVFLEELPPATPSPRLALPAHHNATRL
# Assay: Npt2a activity cell based assay, membrane potential dye, CHO T-REx hNpt2a cells
# Settings: doxycycline-induced, depolarization by sodium phosphate influx, average or median values if tested more than once
# Outline: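 Cells were doxycycline-induced CHO T-REx hNpt2a, dye-loaded and pretreated 5 min at RT with 1 nM–50 μM compound in Na-free pH 7.4 buffer. IC50 was fit to the post/pre-trigger fluorescence ratio.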
row,SMILES,pIC50
1,"CCOC(=O)Cc1c(C)nn(-c2cc(Nc3nn(C)c(-c4ccc(C#N)cc4)c3OC)ncn2)c1C [Example 492, ethyl [1-(6-{[5-(4-cyanophenyl)-4-methoxy-1-methyl-1H-pyrazol-3-yl]amino}pyrimidin-4-yl)-3,5-dimethyl-1H-pyrazol-4-yl]acetate]",7.89
2,"Cc1cc(C)n(-c2cc(Nc3c(C)c(-c4ccccc4)nn3C)ncn2)n1 [Example 75, N-(1,4-dimethyl-3-phenyl-1H-pyrazol-5-yl)-6-(3,5-dimethyl-1H-pyrazol-1-yl)pyrimidin-4-amine]",7.38
3,"COCCn1nc(-c2ccc(F)cn2)c(C)c1Nc1cc(-n2nc(C)cc2C)ncn1 [Example 542, 6-(3,5-dimethyl-1H-pyrazol-1-yl)-N-[3-(5-fluoropyridin-2-yl)-1-(2-methoxyethyl)-4-methyl-1H-pyrazol-5-yl]pyrimidin-4-amine]",7.55
4,"Cc1nn(-c2cc(Nc3c(C)c(-c4ccc(C(F)(F)F)nc4)nn3CC3CC3)ncn2)c(C)c1Cl [Example 534, 6-(4-chloro-3,5-dimethyl-1H-pyrazol-1-yl)-N-{1-(cyclopropylmethyl)-4-methyl-3-[6-(trifluoromethyl)pyridin-3-yl]-1H-pyrazol-5-yl}pyrimidin-4-amine]",5.82
5,"Cc1cc(C)n(-c2cc(Nc3nn(C)c(-c4ccc(C(F)(F)F)nc4)c3C)ncn2)n1 [Example 559, 6-(3,5-dimethyl-1H-pyrazol-1-yl)-N-{1,4-dimethyl-5-[6-(trifluoromethyl)pyridin-3-yl]-1H-pyrazol-3-yl}pyrimidin-4-amine]",6.96
6,"Cc1c(-c2ccc(F)cc2)nn(CC2CC2)c1Nc1cc(-n2ncc3c2CN(C(=O)OC(C)(C)C)C3)ncn1 [Example 431, tert-butyl 1-(6-{[1-(cyclopropylmethyl)-3-(4-fluorophenyl)-4-methyl-1H-pyrazol-5-yl]amino}pyrimidin-4-yl)-4,6-dihydropyrrolo[3,4-c]pyrazole-5(1H)-carboxylate]",7.16
7,"Cc1nn(-c2cc(Nc3c(C)c(-c4ccc(F)cc4)nn3CC3CC3)ncn2)c(C)c1OC(=O)N(C)C [Example 520, 1-(6-{[1-(cyclopropylmethyl)-3-(4-fluorophenyl)-4-methyl-1H-pyrazol-5-yl]amino}pyrimidin-4-yl)-3,5-dimethyl-1H-pyrazol-4-yl dimethylcarbamate]",5.80
8,"CCOC(=O)c1c(C)nn(-c2cc(Nc3c(C)c(-c4ccc(F)cc4)nn3CCOC)ncn2)c1C [Example 528, ethyl 1-(6-{[3-(4-fluorophenyl)-1-(2-methoxyethyl)-4-methyl-1H-pyrazol-5-yl]amino}pyrimidin-4-yl)-3,5-dimethyl-1H-pyrazole-4-carboxylate]",8.40
9,"Cc1cc(C)n(-c2cc(Nc3c(C)nn(-c4ccc(C#N)cc4)c3C)ncn2)n1 [Example 199, 4-(4-{[6-(3,5-dimethyl-1H-pyrazol-1-yl)pyrimidin-4-yl]amino}-3,5-dimethyl-1H-pyrazol-1-yl)benzonitrile]",7.44
10,"Cc1nn(-c2cc(Nc3c(C)c(-c4ccc(F)cc4)nn3CC3CC3)ncn2)c(C)c1C(O)C(F)(F)F (single isomer, unassigned) [Example 376, 1-[1-(6-{[1-(cyclopropylmethyl)-3-(4-fluorophenyl)-4-methyl-1H-pyrazol-5-yl]amino}pyrimidin-4-yl)-3,5-dimethyl-1H-pyrazol-4-yl]-2,2,2-trifluoroethanol]",8.10
11,"CCc1c(Nc2cc(-n3nc(C)c(C4(O)COC4)c3C)ncn2)nn(C)c1-c1ccc(F)cc1 [Example 220, 3-[1-(6-{[4-ethyl-5-(4-fluorophenyl)-1-methyl-1H-pyrazol-3-yl]amino}pyrimidin-4-yl)-3,5-dimethyl-1H-pyrazol-4-yl]oxetan-3-ol]",6.49
12,"CCOC(=O)c1c(C)nn(-c2cc(Nc3c(OC)c(-c4ccc(C#N)cc4)nn3CC3CC3)ncn2)c1C [Example 320, ethyl 1-(6-{[3-(4-cyanophenyl)-1-(cyclopropylmethyl)-4-methoxy-1H-pyrazol-5-yl]amino}pyrimidin-4-yl)-3,5-dimethyl-1H-pyrazole-4-carboxylate]",7.15
13,"Cc1cc(C)n(-c2cc(Nc3nn(C)c(-c4ccc(F)cc4)c3CN3CCCC3)ncn2)n1 [Example 194, 6-(3,5-dimethyl-1H-pyrazol-1-yl)-N-[5-(4-fluorophenyl)-1-methyl-4-(pyrrolidin-1-ylmethyl)-1H-pyrazol-3-yl]pyrimidin-4-amine]",5.89
14,"COc1c(C)nn(-c2cc(Nc3c(C)c(-c4ccc(C(F)(F)F)nc4)nn3C)ncn2)c1C [Example 551, N-{1,4-dimethyl-3-[6-(trifluoromethyl)pyridin-3-yl]-1H-pyrazol-5-yl}-6-(4-methoxy-3,5-dimethyl-1H-pyrazol-1-yl)pyrimidin-4-amine]",5.72
15,"CCc1c(Nc2cc(-n3nc(C)cc3C(C)(C)O)ncn2)nn(C)c1-c1ccc(F)cc1 [Example 125, 2-[1-(6-{[4-ethyl-5-(4-fluorophenyl)-1-methyl-1H-pyrazol-3-yl]amino}pyrimidin-4-yl)-3-methyl-1H-pyrazol-5-yl]propan-2-ol]",7.69
16,"Cc1cc(C)n(-c2cc(Nc3nn(C)c(-c4ccc(F)cc4)c3C3CC3)ncn2)n1 [Example 41, N-[4-cyclopropyl-5-(4-fluorophenyl)-1-methyl-1H-pyrazol-3-yl]-6-(3,5-dimethyl-1H-pyrazol-1-yl)pyrimidin-4-amine]",7.96
17,"Cc1nn(-c2cc(Nc3c(C)c(-c4ccc(C#N)cc4)nn3CCC3CC3)ncn2)c(C(F)F)c1Cl [Example 237, 4-[5-({6-[4-chloro-5-(difluoromethyl)-3-methyl-1H-pyrazol-1-yl]pyrimidin-4-yl}amino)-1-(2-cyclopropylethyl)-4-methyl-1H-pyrazol-3-yl]benzonitrile]",7.82
18,"CCOC(=O)c1c(Cl)c(C)nn1-c1cc(Nc2nn(C)c(-c3ccc(F)cc3)c2Cl)ncn1 [Example 303, ethyl 4-chloro-1-(6-{[4-chloro-5-(4-fluorophenyl)-1-methyl-1H-pyrazol-3-yl]amino}pyrimidin-4-yl)-3-methyl-1H-pyrazole-5-carboxylate]",7.33
19,"Cc1cc(C(F)F)n(-c2cc(Nc3n[nH]c(-c4ccc(F)cc4)c3C)ncn2)n1 [Example 66, 6-[5-(difluoromethyl)-3-methyl-1H-pyrazol-1-yl]-N-[5-(4-fluorophenyl)-4-methyl-1H-pyrazol-3-yl]pyrimidin-4-amine]",7.06
20,"Cc1cc(C)n(-c2cc(Nc3nn(C)c(-c4ccccc4)c3C)ncn2)n1 [Example 62, N-(1,4-dimethyl-5-phenyl-1H-pyrazol-3-yl)-6-(3,5-dimethyl-1H-pyrazol-1-yl)pyrimidin-4-amine]",6.87
21,"COc1c(C)nn(-c2cc(Nc3c(C)c(C45C6C7C4C4C5C6C74C#N)nn3CC3CC3)ncn2)c1C (stereo not shown) [Example 514, 4-[1-(cyclopropylmethyl)-5-{[6-(4-methoxy-3,5-dimethyl-1H-pyrazol-1-yl)pyrimidin-4-yl]amino}-4-methyl-1H-pyrazol-3-yl]cubane-1-carbonitrile]",8.05
22,"CCc1c(Nc2cc(-n3nc(C)cc3C)ncn2)nn(CC2CC2)c1-c1ccc(F)cc1 [Example 143, N-[1-(cyclopropylmethyl)-4-ethyl-5-(4-fluorophenyl)-1H-pyrazol-3-yl]-6-(3,5-dimethyl-1H-pyrazol-1-yl)pyrimidin-4-amine]",6.38
